Measurements reported in patent US6699459B2, “Methods of treating lung inflammation” (The Board of Regents of the University of Texas System, priority 2001, dated 2004).

Tests used:
[1] = tested on: RANTES; experiment: RSV-induced RANTES secretion in A549 cells (ELISA); format: cell-based, human; conditions: for RSV-induced RANTES production: A549 cells, 24 hours, ELISA; for RSV-induced RANTES secretion: concentration not given, data not shown
Method: (§1) Cell culture and infection of epithelial cells with RSV. A549, human alveolar type II-like epithelial cells (ATCC, Manassas, Va.), were maintained in F12K medium containing 10% (v/v) fetal bovine serum (FBS), 10 mM glutamine, 100 IU/ml penicillin and 100 μg/ml streptomycin. Small alveolar epithelial cells (SAE) were obtained from Clonetics (San Diego, Calif.) and grown according to the company instructions. Cell monolayers were infected with RSV at multiplicity of infection (MOI) of 1 (unless otherwise stated), as described (17). An equivalent amount of a 20% sucrose solution was added to uninfected A549 cells, as a control. For the antioxidant experiments, cells were pretreated with the antioxidants for one hour and then infected in the presence of the antioxidants. Since BHA was diluted in ethanol, equal amounts of ethanol were added to untreated cells, as a control. Total number of cells, cell viability and viral replication, following antioxidant treatment, were measured by trypan blue exclusion and by plaque assay, respectively. RANTES ELISA. Immunoreactive RANTES was quantitated by a double antibody ELISA kit (DuoSet, R&D Systems, Minneapolis, Minn.) following the manufacturer's protocol.

[2] = tested on: STAT; experiment: RSV-induced STAT activation in alveolar epithelial cells; format: cell-based
[3] = tested on: RANTES; experiment: RSV-induced RANTES secretion in SAE cells (ELISA); format: cell-based, human; conditions: 20 mM, 24 hours, ELISA
Method: as §1

[4] = tested on: NOS-2; conditions: retinal epithelial cells, LPS/Interferon-γ; Faure et al. (40); cited from earlier work

In the case of `C[S+](C)[O-]` [DMSO, dimethylsulphoxide], the “RSV-induced RANTES production” value ([1]; 2% (v/v)) is reported as “significantly block”.

For `c1ccc2c(c1)[I+]c1ccccc1-2` [DPI], the “STAT activation following RSV infection” value [2] was “greatly reduces (or abolishes)”.

In the case of `CNC(=N)NCCC[C@H](N)C(=O)O` [L-NMMA], the “RSV-induced RANTES secretion” value [1] is reported as “no changes”.

In the case of `CC(=O)N[C@@H](CS)C(=O)O` [NAC, N-acetyl cystein, reference compound], the “RSV-induced RANTES production” value [3] is reported as “significantly reduced” and the “RSV-induced RANTES production” value ([1]; 20 mM) is reported as “significantly block”.

In the case of `CN(C)C(=S)N(C)C` [TMTU, tetramethyl thiourea, reference compound], the “RSV-induced RANTES production” value [3] is reported as “significantly reduced” and the “RSV-induced RANTES production” value ([1]; 20 mM) is reported as “significantly block”.

In the case of `S=C(S)N1CCCC1` [PDTC], the NOS-2 induction [4] is given as “able to inhibit”.

In the case of `COC(=O)[C@@H](N)CCCNC(=N)N[N+](=O)[O-]` [L-NAME], the “RSV-induced RANTES secretion” value [1] is reported as “no changes”.
